Source: US10077261B2, “Imidazolin-5-one derivative useful as FASN inhibitors for the treatment of cancer” (Janssen Pharmaceutica NV, priority 2012, dated 2018)

Target: T1, hFASN enzyme (full length) (Homo sapiens, UniProt P49327)
T1 construct: 10 μL hFASN enzyme (full length, 300 ng, purified in house); made in house
Test: Fatty Acid Synthase (FASN) inhibition scintillation proximity assay
Assay type: biochemical
Conditions: for inhibition at 10 µM: read-out: Human FASN % inhibition @ 10 μM, 10 μM test compound; for IC50: read-out: Human FASN pIC50 (converted)
Method in brief: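 Full-length in-house purified enzyme (300 ng) was tested in 100 mM KH2PO4 pH 7.5, 1 mM DTT with ³H-acetyl-CoA and malonyl-CoA as substrates; compounds ranged 0.01–30 μM. Reactions were stopped with streptavidin imaging beads, read by LEADseeker at 610 nm, and fitted to a 4-parameter logistic curve.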

T1 sequence (P49327 whole entry): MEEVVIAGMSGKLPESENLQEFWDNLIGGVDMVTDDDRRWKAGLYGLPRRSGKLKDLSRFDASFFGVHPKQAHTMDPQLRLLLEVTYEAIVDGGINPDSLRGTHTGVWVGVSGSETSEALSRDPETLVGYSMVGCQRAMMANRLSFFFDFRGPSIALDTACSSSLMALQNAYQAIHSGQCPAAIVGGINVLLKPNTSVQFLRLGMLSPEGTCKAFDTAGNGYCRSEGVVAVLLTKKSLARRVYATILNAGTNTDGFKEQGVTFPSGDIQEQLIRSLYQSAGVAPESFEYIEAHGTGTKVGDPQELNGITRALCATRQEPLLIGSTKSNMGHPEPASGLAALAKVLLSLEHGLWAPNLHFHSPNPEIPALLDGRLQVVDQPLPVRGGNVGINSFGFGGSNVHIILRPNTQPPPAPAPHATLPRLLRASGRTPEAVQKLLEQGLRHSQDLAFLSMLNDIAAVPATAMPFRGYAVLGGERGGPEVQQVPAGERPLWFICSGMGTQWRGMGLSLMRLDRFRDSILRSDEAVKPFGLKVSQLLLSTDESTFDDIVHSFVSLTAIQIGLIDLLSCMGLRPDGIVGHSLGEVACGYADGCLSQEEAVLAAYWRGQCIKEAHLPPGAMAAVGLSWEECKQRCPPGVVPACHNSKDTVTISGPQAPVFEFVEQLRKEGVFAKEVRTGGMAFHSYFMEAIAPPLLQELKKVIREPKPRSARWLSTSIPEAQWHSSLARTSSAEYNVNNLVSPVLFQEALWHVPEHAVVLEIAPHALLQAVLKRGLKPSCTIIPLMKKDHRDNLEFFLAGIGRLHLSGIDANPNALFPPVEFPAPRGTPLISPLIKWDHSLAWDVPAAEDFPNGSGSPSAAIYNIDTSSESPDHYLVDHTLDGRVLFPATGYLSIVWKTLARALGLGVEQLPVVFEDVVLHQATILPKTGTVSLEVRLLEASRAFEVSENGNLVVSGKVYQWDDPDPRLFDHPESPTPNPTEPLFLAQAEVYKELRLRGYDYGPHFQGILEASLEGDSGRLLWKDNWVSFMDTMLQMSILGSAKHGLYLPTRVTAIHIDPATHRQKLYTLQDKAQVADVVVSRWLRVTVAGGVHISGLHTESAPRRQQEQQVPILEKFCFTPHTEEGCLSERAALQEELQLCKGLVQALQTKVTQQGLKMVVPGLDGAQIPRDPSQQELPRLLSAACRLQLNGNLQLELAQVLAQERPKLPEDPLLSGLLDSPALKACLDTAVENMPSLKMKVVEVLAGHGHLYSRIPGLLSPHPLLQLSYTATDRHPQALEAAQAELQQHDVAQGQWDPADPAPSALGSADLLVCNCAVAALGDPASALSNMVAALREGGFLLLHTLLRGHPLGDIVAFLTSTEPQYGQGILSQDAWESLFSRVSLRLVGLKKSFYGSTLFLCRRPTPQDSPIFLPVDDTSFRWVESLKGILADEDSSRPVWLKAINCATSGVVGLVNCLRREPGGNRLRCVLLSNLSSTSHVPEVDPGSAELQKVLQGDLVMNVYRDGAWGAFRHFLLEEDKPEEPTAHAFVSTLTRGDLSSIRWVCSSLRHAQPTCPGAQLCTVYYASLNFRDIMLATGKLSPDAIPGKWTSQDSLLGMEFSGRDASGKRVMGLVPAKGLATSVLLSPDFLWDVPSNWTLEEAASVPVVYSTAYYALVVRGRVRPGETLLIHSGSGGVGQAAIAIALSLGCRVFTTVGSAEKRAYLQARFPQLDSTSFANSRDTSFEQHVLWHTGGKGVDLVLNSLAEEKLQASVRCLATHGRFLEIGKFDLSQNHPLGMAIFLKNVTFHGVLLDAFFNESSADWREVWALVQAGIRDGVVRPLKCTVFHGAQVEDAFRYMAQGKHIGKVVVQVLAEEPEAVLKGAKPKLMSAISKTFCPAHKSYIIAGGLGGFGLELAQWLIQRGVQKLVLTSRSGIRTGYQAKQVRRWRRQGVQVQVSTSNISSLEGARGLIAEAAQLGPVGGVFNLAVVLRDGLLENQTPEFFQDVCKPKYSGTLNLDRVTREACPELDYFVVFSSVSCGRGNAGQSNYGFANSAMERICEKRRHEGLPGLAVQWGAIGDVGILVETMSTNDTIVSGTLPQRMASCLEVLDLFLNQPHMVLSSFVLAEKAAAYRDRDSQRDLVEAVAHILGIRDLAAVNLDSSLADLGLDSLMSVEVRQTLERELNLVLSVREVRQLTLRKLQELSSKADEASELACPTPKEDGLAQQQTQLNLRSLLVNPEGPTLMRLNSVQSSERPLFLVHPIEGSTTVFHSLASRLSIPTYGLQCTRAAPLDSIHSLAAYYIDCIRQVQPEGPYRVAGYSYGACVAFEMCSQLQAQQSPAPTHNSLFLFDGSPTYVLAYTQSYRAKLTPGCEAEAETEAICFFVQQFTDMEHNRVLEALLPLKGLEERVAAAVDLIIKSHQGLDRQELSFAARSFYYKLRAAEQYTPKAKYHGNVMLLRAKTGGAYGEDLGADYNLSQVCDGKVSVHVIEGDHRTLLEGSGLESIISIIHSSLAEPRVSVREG

Structure (SMILES)	inhibition at 10 µM [%]	IC50 [µM]
Cn1ncc2cc(-c3ccc(C4=NC5(CCOCC5)C(=O)N4C[C@@H]4CCN(C(=O)C(F)(F)F)C4)cc3)ccc21 [compound 890, (R)-2-(4-(1-methyl-1H-indazol-5-yl)phenyl)-3-((1-(2,2,2-trifluoroacetyl)pyrrolidin-3-yl)methyl)-8-oxa-1,3-diazaspiro[4.5]dec-1-en-4-one]	37	> 10
Cn1ncc2cc(-c3ccc(C4=NC5(CCOCC5)C(=O)N4CC4CN(C(=O)N5CCCC5)C4)cc3)ccc21 [compound 709, 2-[4-(1-Methyl-1H-indazol-5-yl)phenyl]-3-{[1-(pyrrolidin-1-ylcarbonyl)azetidin-3-yl]methyl}-8-oxa-1,3-diazaspiro[4.5]dec-1-en-4-one]	64	4.07
Cc1sc2ccc(-c3ccc(C4=NC5(CCN(C(=O)CN(C)C)CC5)C(=O)N4C[C@@H]4CCN(C(=O)C5CC5)C4)cc3)cc2c1C [compound 182, 3-{[(3R)-1-(Cyclopropylcarbonyl)pyrrolidin-3-yl]methyl}-2-[4-(2,3-dimethyl-1-benzothiophen-5-yl)phenyl]-8-(N,N-dimethylglycyl)-1,3,8-triazaspiro[4.5]dec-1-en-4-one]	104	0.138
CC(C)C(=O)N1CCC2(CC1)N=C(c1ccc(-c3ccc4occc4c3)cc1)N(CC1CN(C(=O)C3CC3)C1)C2=O [compound 129, 2-[4-(1-Benzofuran-5-yl)phenyl]-3-{[1-(cyclopropylcarbonyl)azetidin-3-yl]methyl}-8-(2-methylpropanoyl)-1,3,8-triazaspiro[4.5]dec-1-en-4-one]	90.7	1.17
COC(=O)N1CC[C@@H](CN2C(=O)C3(CCOCC3)N=C2c2ccc(-c3ccc4occc4c3)cc2)C1 [compound 889, (S)-methyl 3-((2-(4-(benzofuran-5-yl)phenyl)-4-oxo-8-oxa-1,3-diazaspiro[4.5]dec-1-en-3-yl)methyl)pyrrolidin-1-carboxylate]	44	> 10
O=C(C1CC1)N1CC(CN2C(=O)C3(CCOCC3)N=C2c2ccc(-c3ccc4occc4c3)cc2)C1 [compound 702, 2-[4-(1-Benzofuran-5-yl)phenyl]-3-{[1-(cyclopropylcarbonyl)azetidin-3-yl]methyl}-8-oxa-1,3-diazaspiro[4.5]dec-1-en-4-one]	75	~2.63
O=C(C1CC1)N1CCC(CN2C(=O)C3(CC3)N=C2c2ccc(-c3ccc4ocnc4c3)cc2)CC1 [compound 37, 5-[4-(1,3-Benzoxazol-5-yl)phenyl]-6-{[1-(cyclopropylcarbonyl)piperidin-4-yl]methyl}-4,6-diazaspiro[2.4]hept-4-en-7-one]	28.6	> 10
Cc1cc(-c2ccc3c(cnn3C)c2)ccc1C1=NC2(CC2)C(=O)N1CC1CN(C(=O)c2cccnc2)C1 [compound 805, 5-(2-methyl-4-(1-methyl-1H-indazol-5-yl)phenyl)-6-((1-nicotinoylazetidin-3-yl)methyl)-4,6-diazaspiro[2.4]hept-4-en-7-one]	14	> 10
O=C(C1CC1)N1CC(CN2C(=O)C3(CC3)N=C2c2ccc(-c3ccc4nn(CC5CC5)cc4c3)cc2)C1 [compound 501, 6-{[1-(Cyclopropylcarbonyl)azetidin-3-yl]methyl}-5-{4-[2-(cyclopropylmethyl)-2H-indazol-5-yl]phenyl}-4,6-diazaspiro[2.4]hept-4-en-7-one]	52	8.32
O=C(C1CC1)N1CC[C@@H](CN2C(=O)C3(CC3)N=C2c2ccc(-c3ccc(C(F)(F)F)cc3)cc2)C1 [compound 104, 6-{[(3R)-1-(Cyclopropylcarbonyl)pyrrolidin-3-yl]methyl}-5-[4′-(trifluoromethyl)biphenyl-4-yl]-4,6-diazaspiro[2.4]hept-4-en-7-one]	71.7	3.24
